Experimental findings from US20020044933A1, “Inhibition of intimal hyperplasia using antibodies to PDGF receptors” (priority 1993, published 2002) are described below.

The subject of experiment [1] is baboon smooth muscle cells. The experiment can be described thus: Inhibition of PDGF mitogenic activity on baboon smooth muscle cells by non-peptidic antagonists. Format: cell-based.
The next experiment relates to rat smooth muscle cells. Nature of the experiment: Inhibition of PDGF-BB binding to rat smooth muscle cells.

Turning to `O=C(/C=C/c1ccccc1)OC1C=CC2COC(=O)C2C1C(=O)O` (stereo not shown) [92-0825], the “inhibition of PDGF-BB mitogenic activity on baboon smooth muscle cells” value in experiment [1] is on record as “inhibit PDGF-BB mitogenic activity”. The “inhibition of binding of PDGF-BB to rat smooth muscle cells” value with rat smooth muscle cells is listed as “inhibit binding”.

Take `CC1CCCC=CC2CC(O)CC2C(O)C=CC(=O)O1` (stereo not shown) [Brefeldin A, 1,6,7,8,9,11a,12,13,14,14a-Decahydro-1,13-dihydroxy-6-methyl-4H-cyclopent[f]oxacyclotridecin-4-one]: the “inhibition of PDGF mitogenic activity on baboon smooth muscle cells” value in experiment [1] is recorded as “inhibit”. Further, the “inhibition of PDGF mitogenic activity on baboon smooth muscle cells in the presence of heparin” value in experiment [1] (with heparin) is listed as “enhanced”.
